Assay results as given in patent US20250115622A1, “Crystalline Forms Of An MCL-1 Inhibitor” (AMGEN INC., priority 2022, published 2025).

Columns and labels:
[1] = Moisture sorption (DVS) profile; assay type: physicochemical
Protocol: Moisture Sorption: Moisture sorption data was collected using a VTI SGA 100 symmetrical vapor sorption analyzer. A sample size of approximately 5-10 mg was used in a platinum pan. Hygroscopicity was evaluated from 5 to 95% RH in increments of 5% RH. Data for adsorption and desorption cycles were collected. Equilibrium criteria were set at 0.001% weight change in 10 minutes with a maximum equilibration time of 180 minutes.

[2] = Bioavailability compared between crystalline forms; assay type: in vivo; details: relative to AMG 397 anhydrous form 4
[3] = Solubility compared between crystalline forms; assay type: physicochemical; details: relative to AMG 397 anhydrous form 4
Water content by KF = assay type: physicochemical
Protocol: AMG 397 hydrate Form 7 was prepared by charging ˜4 g of AMG 397 with 1-propanol and then slurrying at 55° C. for 4 days. Isolated solids were subsequently dried under vacuum at 95-105° C. for 7 days. Water content by KF was 0.9% initially and 5.6% after equilibration at ambient conditions. DVS indicates variable water content to 0-12% based on environment.

[4] = Thermodynamic stability of solid form; assay type: physicochemical

CO[C@]1(CN2CCN3CCCC[C@@H]3C2)/C=C/C[C@H](C)[C@@H](C)S(=O)(=O)NC(=O)c2ccc3c(c2)N(C[C@@H]2CC[C@H]21)C[C@@]1(CCCc2cc(Cl)ccc21)CO3 [hydrate form 3]
moisture sorption weight gain ([1]; by 95% relative humidity): 1.9%
moisture sorption weight gain ([1]; by 95% relative humidity, listed as crystalline hydrate form 3 of AMG 397): ~1.9%

CO[C@]1(CN2CCN3CCCC[C@@H]3C2)/C=C/C[C@H](C)[C@@H](C)S(=O)(=O)NC(=O)c2ccc3c(c2)N(C[C@@H]2CC[C@H]21)C[C@@]1(CCCc2cc(Cl)ccc21)CO3 [amorphous AMG 397]
moisture sorption weight gain ([1]; by 95% relative humidity): ~6.4%
moisture sorption weight gain ([1]; by 95% relative humidity, listed as amorphous form of AMG 397): 6.4%

CO[C@]1(CN2CCN3CCCC[C@@H]3C2)/C=C/C[C@H](C)[C@@H](C)S(=O)(=O)NC(=O)c2ccc3c(c2)N(C[C@@H]2CC[C@H]21)C[C@@]1(CCCc2cc(Cl)ccc21)CO3 [anhydrous form 6]
moisture sorption weight gain ([1]; 50-95% relative humidity): 10%
moisture sorption weight gain ([1]; between 0-50% relative humidity): 0.5%
moisture sorption weight gain ([1]; by 95% relative humidity): 10%

CO[C@]1(CN2CCN3CCCC[C@@H]3C2)/C=C/C[C@H](C)[C@@H](C)S(=O)(=O)NC(=O)c2ccc3c(c2)N(C[C@@H]2CC[C@H]21)C[C@@]1(CCCc2cc(Cl)ccc21)CO3 [hydrate form 1]
moisture sorption weight gain ([1]; by 95% relative humidity): 3.3%
moisture sorption weight gain ([1]; by 95% relative humidity, listed as crystalline hydrate form 1 of AMG 397): ~3.3%
bioavailability [2]: higher
solubility [3]: higher

CO[C@]1(CN2CCN3CCCC[C@@H]3C2)/C=C/C[C@H](C)[C@@H](C)S(=O)(=O)NC(=O)c2ccc3c(c2)N(C[C@@H]2CC[C@H]21)C[C@@]1(CCCc2cc(Cl)ccc21)CO3 [hydrate form 7]
variable water content (DVS) ([1]; based on environment): 0-12%
moisture sorption weight gain ([1]; by 95% relative humidity): 0-12%
variable water content (DVS) ([1]; moisture sorption profile): 0-12 % wt
water content by KF (Water content by KF; after equilibration at ambient conditions): 5.6%
water content by KF (Water content by KF; initially): 0.9%

CO[C@]1(CN2CCN3CCCC[C@@H]3C2)/C=C/C[C@H](C)[C@@H](C)S(=O)(=O)NC(=O)c2ccc3c(c2)N(C[C@@H]2CC[C@H]21)C[C@@]1(CCCc2cc(Cl)ccc21)CO3 [anhydrous form 4]
moisture sorption weight gain ([1]; by 95% relative humidity): 4.5%
moisture sorption weight gain ([1]; by 95% relative humidity, listed as crystalline anhydrous form 4 of AMG 397): ~4.5%
thermodynamic stability of form [4]: thermodynamically stable form

CO[C@]1(CN2CCN3CCCC[C@@H]3C2)/C=C/C[C@H](C)[C@@H](C)S(=O)(=O)NC(=O)c2ccc3c(c2)N(C[C@@H]2CC[C@H]21)C[C@@]1(CCCc2cc(Cl)ccc21)CO3 [hydrate form 2]
moisture sorption weight gain ([1]; by 95% relative humidity): 3%
moisture sorption weight gain ([1]; by 95% relative humidity, listed as crystalline hydrate form 2 of AMG 397): ~3.0%
